The values below come from patent US11464770B2, “Anticancer pharmaceutical composition” (NATIONAL CANCER CENTER, priority 2016, dated 2022).

The term IC50 denotes the point on the concentration scale where inhibition reaches its midpoint.

The test system of series [1] is lung cancer cell lines (e.g. NCI-H23, NCI-H1229). As to the kind of experiment: Cell based assay, cell viability (CellTiter-Glo), lung cancer cell lines. Particulars: Homo sapiens. Summed up: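 72-hour continuous compound exposure, 0 to 2 μM final, begun one day after seeding; endpoint is ATP-based luminescent viability.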
For orientation: Cellular ATP, detected with luciferase, serves as a proxy for viable cell number.

For another series, the system named is zebrafish. The series can be described thus: Cardiotoxicity experiment using zebrafish (heart rate, lethality). It counts as in vivo. Particulars: 5 uM, n = 10.
Series [2] concerns UM-UC-3: human urinary bladder transitional cell carcinoma. As to the kind of experiment: Cell based assay, cytotoxicity in UM-UC-3 cells. Particulars: UMUC3, 72 hours. On the procedure: (§1) Commercially available bladder cancer, prostate cancer, lung cancer, breast cancer, blood cancer, pancreatic cancer, colorectal cancer, brain cancer, neuroblastoma, melanoma, liver cancer, cervical carcinoma, ovarian cancer, renal cancer, and papilloma cell lines were each treated with trypsin-EDTA and cultured, followed by being seeded in each well of a 96 well plate. After 24 hours of treatment at constant temperature, the respective cells were treated with the candidate compound so that a final concentration became 0 to 2 μM. The treated cells were additionally cultured for 72 hours, and cell viability was measured by using an ATP detection method (CellTiter-Glo® Luminescent Cell Viability Assay, Promega).

Series [3] relates to MBT-2: Mouse bladder transitional cell carcinoma. The series can be described thus: Cell based assay, cytotoxicity in MBT-2 cells. Particulars: 72 hours. On the procedure: as §1

Where two headings read alike, the source gives them in different places. Some results are limits rather than exact numbers.

Take `CC(=O)c1c([S+]([O-])Cc2ccccc2)nc2c(Br)ccc(Cl)c2c1O` (centres unmarked) [Compound 4]: the IC50 in series [1] (A549 cells, 72 hours treatment, CellTiter-Glo, read-out: IC50, lung cancer cell line A549) was 1.97 µM; in series [1] (DMS 114 cells, 72 hours treatment, CellTiter-Glo, read-out: IC50, lung cancer cell line DMS 114), over 2 µM; in series [1] (MRC-5 cells, 72 hours treatment, CellTiter-Glo, read-out: IC50) it was 0.91 µM; in series [1] (NCI-H23 cells, 72 hours treatment, CellTiter-Glo, read-out: IC50, lung cancer cell line NCI-H23), 0.92 µM; in series [1] (NCI-H460 cells, 72 hours treatment, CellTiter-Glo, read-out: IC50, lung cancer cell line NCI-H460) it was 1.65 µM; in series [1] (NCI-H522 cells, 72 hours treatment, CellTiter-Glo, read-out: IC50, lung cancer cell line NCI-H522) it was over 2 µM. Besides, the IC50 in series [1] (NCI-H1299 cells, 72 hours treatment, CellTiter-Glo, read-out: IC50, lung cancer cell line NCI-H1299) is 1.4 µM; in series [1] (NCI-H1437 cells, 72 hours treatment, CellTiter-Glo, read-out: IC50, lung cancer cell line NCI-H1437), over 2 µM. Moreover, the “Changes (%) in heart rate” value in the series with zebrafish (mean) is 88.5%. Further, the Lethality with zebrafish is recorded as 1/10.
As for `CC(=O)c1c([S+]([O-])Cc2ccc(-n3cccn3)nc2)[nH]c2c(Br)ccc(Cl)c2c1=O` (centres unmarked) [Compound 99, 2-(((6-(1H-pyrazol-1-yl)pyridin-3-yl)methyl)sulfinyl)-3-acetyl-8-bromo-5-chloroquinolin-4(1H)-one], the IC50 in series [1] (Lung cancer cell line A549, 72 hours, cell viability (CellTiter-Glo), read-out: IC50, A549) is 1.29 µM; in series [1] (Lung cancer cell line DMS 114, 72 hours, cell viability (CellTiter-Glo), read-out: IC50, DMS 114), over 2 µM; in series [1] (Lung cancer cell line NCI-H23, 72 hours, cell viability (CellTiter-Glo), read-out: IC50, NCI-H23), 0.92 µM; in series [1] (Lung cancer cell line NCI-H460, 72 hours, cell viability (CellTiter-Glo), read-out: IC50, NCI-H460), 1.18 µM; in series [1] (Lung cancer cell line NCI-H522, 72 hours, cell viability (CellTiter-Glo), read-out: IC50, NCI-H522), 1.13 µM; in series [1] (Lung cancer cell line NCI-H1299, 72 hours, cell viability (CellTiter-Glo), read-out: IC50, NCI-H1299) it was 1.06 µM. Besides, the IC50 in series [1] (Lung cancer cell line NCI-H1437, 72 hours, cell viability (CellTiter-Glo), read-out: IC50, NCI-H1437) was over 10 µM; in series [1] (MRC-5 (listed under Lung cancer cell line), 72 hours, cell viability (CellTiter-Glo), read-out: IC50, MRC-5), 1.13 µM; in series [2], 0.77 µM; in series [3], 0.47 µM.
